Source: ChEMBL document CHEMBL5036343, “Discovery and development of CPL207280 as new GPR40/FFA1 agonist” (Eur J Med Chem, 2021)

What was measured:
Assay type in all cases: ADME, organism-based
Settings in all cases: in vivo
[1] = Half life in Wistar Han rat at 3 mg/kg, po measured after 24 hours by UPLC-MS/MS analysis
[2] = Oral bioavailability in Wistar Han rat at 3 mg/kg measured after 24 hours by UPLC-MS/MS analysis
[3] = Cmax in Wistar Han rat at 3 mg/kg, po measured after 24 hours by UPLC-MS/MS analysis; set-up: route oral, dose 3 mg/kg, time 24 hrs
[4] = Tmax in Wistar Han rat at 3 mg/kg, po measured after 24 hours by UPLC-MS/MS analysis

| Compound | half-life [1] [h] | bioavailability [2] [%] | Cmax [3] [ng/mL] | Tmax [4] [h] |
| --- | --- | --- | --- | --- |
| CC#C[C@@H](CC(=O)O)c1ccc(OCC(C)=C(C)C)cc1 | 1.41 | 65 | 1700 | 1 |
| Cc1cc(OCCCS(C)(=O)=O)cc(C)c1-c1cccc(COc2ccc3c(c2)OC[C@H]3CC(=O)O)c1 | 2.9 | 36 | 1830 | 2 |
